Laboratory results published in patent publication US10092565B2, “Treatment of proliferative disorders with a chemiluminescent agent” (Semorex Technologies Ltd., priority 2011, dated 2018).
pIC50: −log10 of the molar value. Where two headings read alike, the source gives them in different places. Blank lines part the entries; values can stand above or below the compound they belong to.

Legend:
[1] = test system: CHRF line acute myeloid leukemia (AML) cells; experiment: XTT growth inhibition of CHRF AML cells, 72 hours; format: cell-based; conditions: for Growth inhibition (%): 80 µM
Method: Cells were grown in full culture medium for 24 hours. The medium was then removed and cells were washed with PBS. The PBS was then replaced by fresh medium containing different concentrations of SEM-011 in a range of 50 to 800 μM, or with SEM-011-free medium as a control. […] Growth inhibition was evaluated by calculating the percent decrease in absorbance in SEM-011-treated test cultures as compared to control cultures.

PC-3 cells = experiment: Alamar Blue growth inhibition of PC-3 cells; format: cell-based, human; conditions: for pIC50: read-out: Est IC50
Method: In additional sets of experiments. […] At the end of the culture period, the level of mitochondrial metabolism was measured (using Alamar Blue assay) and the activity of the chemiluminescent agents was determined by percents of growth inhibition; the inhibition of growth in treated cell cultures compared to non-treated, control cells.

[2] = test system: PC-3 prostate cancer cells; experiment: PC-3 prostate cancer tumors in nu/nu mice, tumor volume / Progression Index; format: in vivo
Method: Tumor volumes were quantified (in cm^3) at the indicated times by using the formula: tumor volume=(width^2×length)/2. Tumor volume index or Progression Index refers to the ratio of a tumor volume at an indicated time to the first volume measured for that tumor.
Nu/nu nude mice were inoculated on their right flank with 2×10^6 PC-3 prostate cancer cells in a Matrigel mixture. Following inoculation, two mice were treated with escalating concentrations of L-012 (also referred to herein as “SEM-007”) by intraperitoneal injections twice per week, according to the following schedule:
As a control, two mice were inoculated with PC-3 cells without receiving L-012.
The volume of the tumor was then monitored.
The tumor volume was measured periodically beginning on day 25 post-inoculation, and the weight loss over the course of the experiment was also measured.
Each treatment group and each control group consisted of four (and sometimes five) mice.
In another set of experiments, Nu/nu male mice, 1.5-month old, were injected subcutaneously on the right flank with PC-3 cells (2.0×10^6 cells/mouse). On days 4, 8, 12, 15, 19, 36, 42 and […] (after the beginning of treatment), mice were treated with either vehicle (PBS) or 43 mg/Kg L012 by intraperitoneal injections. From the beginning of treatment, tumor dimensions were measured and tumor volume calculated. Progression Index was calculated as the ratio of tumor volume growth at a particular time point to the tumor volume at the initiation of treatment.
(§1) Control animals received an intraperitoneal injection of PBS.
The tumor volume was measured periodically beginning on day 35 post-inoculation.
Nu/nu male mice, 1.5-month old, were injected subcutaneously on the right flank with PC-3 cells (2.0×10^6 cells/mouse). On days 4, 8, 12, 15, 19, 36, 42 and 46 (after beginning of treatment), mice were treated with either vehicle (PBS) or 43 mg/Kg SEM 009, by intravenous injection, as indicated.
From the beginning of treatment, tumor dimensions were measured and tumor volume calculated. Progression Index was calculated as the ratio of tumor volume rowth at a particular time point to the tumor volume at the initiation of treatment.

[3] = XTT growth inhibition IC50 in a panel of cancer cell lines, 72 hours; format: cell-based; conditions: span over all tested cell lines, FIG. 7, read-out: IC50 (concentration which resulted in 50% growth inhibition)
Method: (§2) The compound SEM-011 was tested for anti-cancer activity, using the PC-3 prostate cancer cell line. Cells were grown in full culture medium for 24 hours. The medium was then removed and cells were washed with PBS. The PBS was then replaced by fresh medium containing different concentrations of SEM-011 in a range of 50 to 800 μM, or with SEM-011-free medium as a control. Cells were then cultured for 24 hours, after which time the level of cellular metabolism in the cultures was measured using a standard XTT (2,3-bis-(2-methoxy-4-nitro-5-sulfophenyl)-2H-tetrazolium-5-carboxanilide) assay. Growth inhibition was evaluated by calculating the percent decrease in absorbance in SEM-011-treated test cultures as compared to control cultures.
(§3) The compounds SEM-007 (also referred to herein and in the art as “L-012”) and SEM-009 (also referred to in the art as “L-002”) were tested for anti-cancer activity using a variety of cell lines. The cell lines used were OvCar-3 ovarian cancer cells, SKOV-3 ovarian cancer cells, HepG2 liver cancer cells, PC-3 prostate cancer cells, and CHRF acute myeloid leukemia cells.

[4] = test system: OvCar-3 ovarian cancer cells, SKOV-3 ovarian cancer cells, HepG2 liver cancer cells, PC-3 prostate cancer cells, CHRF acute myeloid leukemia cells; experiment: as above; format: cell-based; conditions: all tested cell lines, FIG. 7
Method: as §2, §3

[5] = for effect on decrease in body weight following inoculation with tumor cells: FIG. 5
Excerpt: FIG. 5 is a bar graph showing the change in body weight of nu/nu mice 28 and 77 days after inoculation with PC-3 cells, following intraperitoneal injection of L-012 once per week (L012 l/w) or twice per week (L012 2/w) during days 35-56 after inoculation, and without L-012 administration (Control);
Nu/nu mice were inoculated with PC-3 cells as described in Example 1, and on day 35 post-inoculation, the animals were divided into three groups.
as §1
A second group received one weekly injection of 41.3 mg/kg L-012 for 3 weeks, i.e., on days 35, 42 and 49 post-inoculation. A third group received two weekly injections of 41.3 mg/kg L-012 for 3 weeks, i.e., on days 35, 36, 42, 47, 49 and 56.

[6] = test system: PC-3 prostate cancer cell line; experiment: XTT growth inhibition of PC-3 cells, 24 hours; format: cell-based, human
Method: as §2

[7] = Homo sapiens, PC-3, 200 uM, 24 hrs
[8] = Homo sapiens, PC-3, 200 uM, 48 hrs
[9] = Homo sapiens, PC-3, 200 uM, 72 hrs
[10] = Homo sapiens, PC-3, 400 uM, 24 hrs
[11] = Homo sapiens, PC-3, 400 uM, 48 hrs
[12] = Homo sapiens, PC-3, 400 uM, 72 hrs
[13] = Homo sapiens, PC-3, 800 uM, 24 hrs
[14] = Homo sapiens, PC-3, 800 uM, 48 hrs
[15] = Homo sapiens, PC-3, 800 uM, 72 hrs

Compound: C[n+]1c2ccccc2c(-c2c3ccccc3[n+](C)c3ccccc23)c2ccccc21 [Lucigenin]
Growth inhibition (%) [1]: 33%

Compound: MCLA
Growth inhibition (%) [1]: 85%

Compound: O=c1[nH][nH]c(=O)c2c(O)c(-c3ccccc3Cl)ncc12 [SEM-013, 8-hydroxy-7-(2-chlorophenyl)-2,3-dihydropyrido[4,3-d]pyridazine-1,4-dione]
inhibition at 200 µM (PC-3 cells; [7]): 23.8% | inhibition at 200 µM (PC-3 cells; [8]): 22.3% | inhibition at 200 µM (PC-3 cells; [9]): 23.1% | inhibition at 400 µM (PC-3 cells; [10]): 30.1% | inhibition at 400 µM (PC-3 cells; [11]): 29.1% | inhibition at 400 µM (PC-3 cells; [12]): 41.7% | inhibition at 800 µM (PC-3 cells; [13]): 37.1% | inhibition at 800 µM (PC-3 cells; [14]): 55.5% | inhibition at 800 µM (PC-3 cells; [15]): 64.2%

Compound: O=c1[nH][nH]c(=O)c2c(O)c(-c3ccc(Cl)cc3)ncc12 [SEM-014, 8-hydroxy-7-(4-chlorophenyl)-2,3-dihydropyrido[4,3-d]pyridazine-1,4-dione]
inhibition at 200 µM (PC-3 cells; [7]): 51.6% | inhibition at 200 µM (PC-3 cells; [8]): 71.9% | inhibition at 200 µM (PC-3 cells; [9]): 68.2% | inhibition at 400 µM (PC-3 cells; [10]): 55.7% | inhibition at 400 µM (PC-3 cells; [11]): 70.5% | inhibition at 400 µM (PC-3 cells; [12]): 72.7% | inhibition at 800 µM (PC-3 cells; [13]): 54.3% | inhibition at 800 µM (PC-3 cells; [14]): 71.3% | inhibition at 800 µM (PC-3 cells; [15]): 76.1%

pIC50 [3]: 3.70 to 4.40 | pIC50 (PC-3 cells; Homo sapiens, PC-3, 48 hrs): 4.00 | pIC50 (PC-3 cells; Homo sapiens, PC-3, 73 hrs): 3.96
Compound: O=c1[nH][nH]c(=O)c2c(O)c(-c3ccccc3)ncc12 [SEM-009, 8-hydroxy-7-phenyl-2,3-dihydropyrido[4,3-d]pyridazine-1,4-dione]
Progression Index compared to non-treated mice ([2]; 43 mg/Kg SEM 009 by intravenous injection, FIG. 9): sharp decrease in the Progression Index | IC50 compared with SEM-007 [4]: lower than that of SEM-007 in all of the tested cell lines | inhibition at 50 µM (PC-3 cells; Homo sapiens, PC-3, 50 uM, 24 hrs): -27.2% | inhibition at 50 µM (PC-3 cells; Homo sapiens, PC-3, 50 uM, 48 hrs): 26.6% | inhibition at 50 µM (PC-3 cells; Homo sapiens, PC-3, 50 uM, 73 hrs): 21.3% | inhibition at 100 µM (PC-3 cells; Homo sapiens, PC-3, 100 uM, 24 hrs): 81.4% | inhibition at 100 µM (PC-3 cells; Homo sapiens, PC-3, 100 uM, 48 hrs): 49.2% | inhibition at 100 µM (PC-3 cells; Homo sapiens, PC-3, 100 uM, 73 hrs): 47.8% | inhibition at 200 µM (PC-3 cells; [7]): 84.2% | inhibition at 200 µM (PC-3 cells; [8]): 80.3% | inhibition at 200 µM (PC-3 cells; Homo sapiens, PC-3, 200 uM, 73 hrs): 80.5% | inhibition at 400 µM (PC-3 cells; [10]): 90.6% | inhibition at 400 µM (PC-3 cells; [11]): 83.7% | inhibition at 400 µM (PC-3 cells; Homo sapiens, PC-3, 400 uM, 73 hrs): 85.6% | inhibition at 800 µM (PC-3 cells; [13]): 89.1% | inhibition at 800 µM (PC-3 cells; [14]): 85.7% | inhibition at 800 µM (PC-3 cells; Homo sapiens, PC-3, 800 uM, 73 hrs): 89%

Compound: Nc1c(-c2ccccc2)nc(Cl)c2c(=O)[nH][nH]c(=O)c12 [SEM-007, L-012]
reduction of tumor volume in comparison with the PBS-treated control ([2]; 41.3 mg/kg intraperitoneal on days 25, 28, 32, 35, at day 65, FIG. 3A): 54% | reduction of tumor volume in comparison with the PBS-treated control ([2]; 41.3 mg/kg once per week for 3 weeks, at day 73, FIGS. 4A, 4B): 45% | reduction of tumor volume in comparison with the PBS-treated control ([2]; 41.3 mg/kg twice per week for 3 weeks, at day 73, FIGS. 4A, 4B): 95% | Progression Index compared to non-treated mice ([2]; 43 mg/Kg intraperitoneal, FIG. 3B): sharp increase in the Progression Index | average tumor volume progression after administration ([2]; escalating L-012 41.3, 66.5, 100.4 mg/kg intraperitoneal on days 32, 39, 43, FIG. 2): halted tumor progression, with no increase in average tumor volume | tumor volume reduction (summary of FIGS. 2-4B) ([2]; prostate cancer cells injected into mice, dose dependent): up to 95% | systemic toxicity or morbidity in tumor-bearing mice ([5]; 41.3 mg/kg once or twice per week): does not result in systemic toxicity or morbidity | effect on decrease in body weight following inoculation with tumor cells ([5]; 41.3 mg/kg once per week): partially inhibited the decrease in body weight | effect on decrease in body weight following inoculation with tumor cells ([5]; 41.3 mg/kg twice per week): completely reversed the decrease in body weight | % growth inhibition (PC-3 cells; 25 uM, 48 hrs): 27% | % growth inhibition (PC-3 cells; 25 uM, 73 hrs): 11% | % growth inhibition (PC-3 cells; 50 uM, 24 hrs): 46.46% | % growth inhibition (PC-3 cells; 50 uM, 48 hrs): 31% | % growth inhibition (PC-3 cells; 50 uM, 73 hrs): 20% | % growth inhibition (PC-3 cells; 100 uM, 24 hrs): 65.25% | % growth inhibition (PC-3 cells; 100 uM, 48 hrs): 38% | % growth inhibition (PC-3 cells; 100 uM, 73 hrs): 38% | % growth inhibition (PC-3 cells; 200 uM, 24 hrs): 66.84% | % growth inhibition (PC-3 cells; 200 uM, 48 hrs): 58% | % growth inhibition (PC-3 cells; 200 uM, 73 hrs): 58.0% | % growth inhibition (PC-3 cells; 400 uM, 24 hrs): 77.73% | % growth inhibition (PC-3 cells; 400 uM, 48 hrs): 70% | % growth inhibition (PC-3 cells; 400 uM, 73 hrs): 76% | % growth inhibition (PC-3 cells; 800 uM, 24 hrs): 73.80% | % growth inhibition (PC-3 cells; 800 uM, 48 hrs): 78% | % growth inhibition (PC-3 cells; 800 uM, 73 hrs): 90% | pIC50 (PC-3 cells; 48 hrs): 3.80 | pIC50 (PC-3 cells; 73 hrs): 3.85

Compound: Nc1cccc2c(=O)[nH][nH]c(=O)c12 [Luminol]
inhibition at 80 µM ([1]; 72 h, read-out: Growth inhibition (%)): 40%

Compound: NNc1nc(-c2ccccc2)c(O)c2c(=O)[nH][nH]c(=O)c12 [SEM-011, 5-hydrazinyl-8-hydroxy-7-phenyl-2,3-dihydropyrido[4,3-d]pyridazine-1,4-dione]
inhibition at 50 µM ([6]; Homo sapiens, PC-3, 50 μM): 50% | inhibition at 100 µM ([6]; Homo sapiens, PC-3, 100 μM): 87% | inhibition at 200 µM ([6]; Homo sapiens, PC-3, 200 μM): 96% | inhibition at 400 µM ([6]; Homo sapiens, PC-3, 400 μM): 96% | inhibition at 800 µM ([6]; Homo sapiens, PC-3, 800 μM): 96% | PC-3 cell growth inhibition in words ([6]; concentrations of 200 μM or more): almost completely inhibited PC-3 cell growth
